From patent publication US20260166159A1, “KRAS G12D DEGRADATION AGENT, AND PREPARATION METHOD AND USE THEREFOR” (LEADINGTAC PHARMACEUTICAL (SHAOXING) CO., LTD., priority 2022, published 2026)

Tests used:
[1] = biological target: T1, Human KRAS G12D 6His-tagged (Homo sapiens, UniProt P01116, G12D); assay: KRAS-G12D/GTP binding assay (HTRF)
T1 construct: purchased PerkinElmer
In short: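 Compounds at 0.02-5000 nM final (0.5% DMSO) were tested for blocking GTP Red tracer binding to His-tagged KRAS G12D, detected by Eu-cryptate anti-His antibody after 1 h, 25° C. Inhibition taken from 665/620 nm ratio relative to control, then fitted to give IC50.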

phosphorylated ERK = assay: KRAS G12D-mediated phosphorylated ERK inhibition assay (AlphaLISA), A427; type: cell-based; conditions: Homo sapiens, A-427; A427 cells; class symbols; read-out: pERK (A427) IC50
Protocol: The relative amounts of phosphorylated ERK and total ERK in the samples were separately determined according to the test methods provided in the instructions of the AlphaLISA SureFire Ultra p-ERK 1/2 (Thr202/Tyr204) kit (PerkinElmer) and the AlphaLISA SureFire Ultra TotalERK 1/2 kit (PerkinElmer).
The experimental procedures for the assay of the phosphorylated ERK and total ERK were as follows: 10 μL of each sample was added to a 384-well plate (Greiner), and 5 μL of the prepared Acceptor Beads (PerkinElmer) mixed solution (containing 50× Acceptor Beads 615, Activation Buffer, and equal volumes of Reaction Buffer 1 and Reaction Buffer 2) was added to each well; and the plate was incubated at room temperature for 2 h. Then 5 μL of 1× Donor Beads (PerkinElmer) diluted with Dilution Buffer was added to each well, and the plate was incubated at room temperature overnight. After the incubation was completed, AlphaLISA signal values for the phosphorylated ERK and total ERK were separately measured on an EnVision microplate reader (PerkinElmer) in the AlphaScreen standard mode. The following formula was adopted: phosphorylated ERK correction value=phosphorylated ERK AlphaLISA signal value/total ERK AlphaLISA signal value. The relative ratio of the phosphorylated ERK for each sample was calculated. The percentage inhibition rates of the compounds on the phosphorylated ERK at each concentration were calculated by comparing the relative value of the phosphorylated ERK with that of the DMSO control well. Then non-linear curve fittings for logarithmic concentration-inhibition rate were performed by the GraphPad Prism 8 analysis software, and the IC50 values of the compounds on the inhibition of the phosphorylated ERK were obtained (Table 2).

[2] = tested on: KRAS G12D mutant human gastric cancer cell AGS; assay: 3D cell proliferation inhibition assay, AGS; type: cell-based; conditions: 168 h, 7 days, CTG
In short: (§1)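 Compound dilutions are added to low-adsorption wells, then cells at 5×10^2 cells/well. Final compound range is 10000–0.026 nM, with 0.2% DMSO. After 7 days at 37 °C with 5% CO2, CTG reagent is added and luminescence is read 60 min later. IC50 is fitted from inhibition relative to DMSO and medium controls.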

[3] = tested on: KRAS G12D mutant human metastatic pancreatic cancer cell AsPc-1; assay: 3D cell proliferation inhibition assay, AsPc-1; type: cell-based; conditions: ASPC1, 168 h, AsPc-1, 7 days, CTG
In short: as §1

[4] = tested on: KRAS G12D mutant human pancreatic cancer cell Panc 04.03; assay: 3D cell proliferation inhibition assay, Panc 04.03; type: cell-based; conditions: 168 h, Panc 04.03, 7 days, CTG
In short: as §1

T1 sequence (P01116 1-188 isoform P01116-2 G12D): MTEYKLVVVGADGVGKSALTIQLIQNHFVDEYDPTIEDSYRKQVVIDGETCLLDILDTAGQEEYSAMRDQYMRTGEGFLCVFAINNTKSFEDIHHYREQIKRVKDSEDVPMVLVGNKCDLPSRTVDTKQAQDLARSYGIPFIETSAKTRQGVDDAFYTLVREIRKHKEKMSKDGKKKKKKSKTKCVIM

Structure (SMILES)	IC50 ([1]; class symbols) [nM]	IC50 (phosphorylated ERK) [nM]	IC50 ([2]; class symbols) [nM]	IC50 ([3]; numeric values) [nM]	IC50 ([4]; numeric values) [nM]	IC50 ([3]; class symbols) [nM]	IC50 ([4]; class symbols) [nM]	IC50 ([1]; numeric values) [nM]	IC50 ([2]; numeric values) [nM]
C#Cc1c(F)ccc2cc(O)cc(-c3ncc4c(N5CC6CCC(C5)N6)nc(OCC5(CN6CCN(CCC7CCN(C(=O)c8ccc(Cl)c(N9CCC(=O)NC9=O)c8)CC7)CC6)CC5)nc4c3F)c12 [Example 3, 1-(5-(4-(2-(4-((1-(((4-(3,8-diazabicyclo[3.2.1]octan-3-yl)-7-(8-ethynyl-7-fluoro-3-hydroxynaphthalen-1-yl)-8-fluoropyrido[4,3-d]pyrimidin-2-yl)oxy)methyl)cyclopropyl)methyl)piperazin-1-yl)ethyl)piperidine-1-carbonyl)-2-chlorophenyl)dihydropyrimidine-2,4(1H,3H)-dione]	≤ 50	50 to 100	≤ 50	–	–	–	–	–	–
C#Cc1c(F)ccc2cc(O)cc(-c3ncc4c(N5CC6CCC(C5)N6)nc(OCC5(CN6CCN(CCCC7CCN(C(=O)c8ccc(Cl)c(N9CCC(=O)NC9=O)c8)CC7)CC6)CC5)nc4c3F)c12 [Example 4, 1-(5-(4-(3-(4-((1-(((4-(3,8-diazabicyclo[3.2.1]octan-3-yl)-7-(8-ethynyl-7-fluoro-3-hydroxynaphthalen-1-yl)-8-fluoropyrido[4,3-d]pyrimidin-2-yl)oxy)methyl)cyclopropyl)methyl)piperazin-1-yl)propyl)piperidine-1-carbonyl)-2-chlorophenyl)dihydropyrimidine-2,4(1H,3H)-dione]	≤ 50	≤ 50	50 to 100	–	–	–	–	–	–
C#Cc1c(F)ccc2cc(O)cc(-c3ncc4c(N5CC6CCC(C5)N6)nc(OCC5(CN6CCN(CCCCC7CCN(C(=O)c8ccc(Cl)c(N9CCC(=O)NC9=O)c8)CC7)CC6)CC5)nc4c3F)c12 [Example 5, 1-(5-(4-(4-(4-((1-(((4-(3,8-diazabicyclo[3.2.1]octan-3-yl)-7-(8-ethynyl-7-fluoro-3-hydroxynaphthalen-1-yl)-8-fluoropyrido[4,3-d]pyrimidin-2-yl)oxy)methyl)cyclopropyl)methyl)piperazin-1-yl)butyl)piperidine-1-carbonyl)-2-chlorophenyl)dihydropyrimidine-2,4(1H,3H)-dione]	≤ 50	≤ 50	≤ 50	–	–	–	–	–	–
C#Cc1c(F)ccc2cc(O)cc(-c3ncc4c(N5CC6CCC(C5)N6)nc(OCC5(CN6CCN(CC7CCC8(CC7)CCN(C(=O)c7ccc(Cl)c(N9CCC(=O)NC9=O)c7)CC8)CC6)CC5)nc4c3F)c12 [Example 6, 1-(5-(9-((4-((1-(((4-(3,8-diazabicyclo[3.2.1]octan-3-yl)-7-(8-ethynyl-7-fluoro-3-hydroxynaphthalen-1-yl)-8-fluoropyrido[4,3-d]pyrimidin-2-yl)oxy)methyl)cyclopropyl)methyl)piperazin-1-yl)methyl)-3-azaspiro[5.5]undecane-3-carbonyl)-2-chlorophenyl)dihydropyrimidine-2,4(1H,3H)-dione]	≤ 50	≤ 50	≤ 50	–	–	–	–	–	–
C#Cc1c(F)ccc2cc(O)cc(-c3ncc4c(N5CC6CCC(C5)N6)nc(OCC5(CN6CCN(CCCC7CCC8(CC7)CCN(C(=O)c7ccc(Cl)c(N9CCC(=O)NC9=O)c7)CC8)CC6)CC5)nc4c3F)c12 [Example 7, 1-(5-(9-(3-(4-((1-(((4-(3,8-diazabicyclo[3.2.1]octan-3-yl)-7-(8-ethynyl-7-fluoro-3-hydroxynaphthalen-1-yl)-8-fluoropyrido[4,3-d]pyrimidin-2-yl)oxy)methyl)cyclopropyl)methyl)piperazin-1-yl)propyl)-3-azaspiro[5.5]undecane-3-carbonyl)-2-chlorophenyl)dihydropyrimidine-2,4(1H,3H)-dione]	≤ 50	≤ 50	≤ 50	–	–	–	–	–	–
C#Cc1c(F)ccc2cc(O)cc(-c3ncc4c(N5CC6CCC(C5)N6)nc(OCC5(CN6CCN(CCCC7CCN(C(=O)c8ccc(OC)c(N9CCC(=O)NC9=O)c8)CC7)CC6)CC5)nc4c3F)c12 [Example 8, 1-(5-(4-(3-(4-((1-(((4-(3,8-diazabicyclo[3.2.1]octan-3-yl)-7-(8-ethynyl-7-fluoro-3-hydroxynaphthalen-1-yl)-8-fluoropyrido[4,3-d]pyrimidin-2-yl)oxy)methyl)cyclopropyl)methyl)piperazin-1-yl)propyl)piperidine-1-carbonyl)-2-methoxyphenyl)dihydropyrimidine-2,4(1H,3H)-dione]	≤ 50	≤ 50	≤ 50	–	–	–	–	–	–
C#Cc1c(F)ccc2cc(O)cc(-c3ncc4c(N5CC6CCC(C5)N6)nc(OCC5(CN6CCC(CCOCC7CCN(C(=O)c8ccc(Cl)c(N9CCC(=O)NC9=O)c8)CC7)CC6)CC5)nc4c3F)c12 [Example 10]	≤ 50	≤ 50	≤ 50	–	–	–	–	–	–
C#Cc1c(F)ccc2cc(O)cc(-c3ncc4c(N5CC6CCC(C5)N6)nc(OCC5(CN6CCC(COCC7CCN(C(=O)c8ccc(Cl)c(N9CCC(=O)NC9=O)c8)CC7)CC6)CC5)nc4c3F)c12 [Example 13, 1-(5-(4-(((1-((1-(((4-(3,8-diazabicyclo[3.2.1]octan-3-yl)-7-(8-ethynyl-7-fluoro-3-hydroxynaphthalen-1-yl)-8-fluoropyrido[4,3-d]pyrimidin-2-yl)oxy)methyl)cyclopropyl)methyl)piperidin-4-yl)methoxy)methyl)piperidine-1-carbonyl)-2-chlorophenyl)dihydropyrimidine-2,4(1H,3H)-dione]	≤ 50	≤ 50	≤ 50	–	–	–	–	–	–
C#Cc1c(F)ccc2cc(O)cc(-c3ncc4c(N5CC6CCC(C5)N6)nc(OCC5(CN6CCN(CC7CCC8(CC7)CCN(C(=O)c7ccc(OC)c(N9CCC(=O)NC9=O)c7)CC8)CC6)CCC5)nc4c3F)c12 [Example 25, 1-(5-(9-((4-((1-(((4-(3,8-diazabicyclo[3.2.1]octan-3-yl)-7-(8-ethynyl-7-fluoro-3-hydroxynaphthalen-1-yl)-8-fluoropyrido[4,3-d]pyrimidin-2-yl)oxy)methyl)cyclobutyl)methyl)piperazin-1-yl)methyl)-3-azaspiro[5.5]undecane-3-carbonyl)-2-methoxyphenyl)dihydropyrimidine-2,4(1H,3H)-dione]	≤ 50	100 to 500	–	–	–	–	–	–	–
C#Cc1c(F)ccc2cc(O)cc(-c3ccc4c(N5CC6CCC(C5)N6)nc(OCC5(CN6CCN(CC7CCC8(CC7)CCN(C(=O)c7ccc(C)c(N9CCC(=O)NC9=O)c7)CC8)CC6)CC5)nc4c3F)c12 [Example 42, 1-(5-(9-((4-((1-(((4-(3,8-diazabicyclo[3.2.1]octan-3-yl)-7-(8-ethynyl-7-fluoro-3-hydroxynaphthalen-1-yl)-8-fluoroquinazolin-2-yl)oxy)methyl)cyclopropyl)methyl)piperazin-1-yl)methyl)-3-azaspiro[5.5]undecane-3-carbonyl)-2-methylphenyl)dihydropyrimidine-2,4(1H,3H)-dione]	≤ 50	–	≤ 50	1.75	8.41	–	–	–	–
C#Cc1cccc2cc(O)cc(-c3ncc4c(N5CC6CCC(C5)N6)nc(OCC5(CN6CCN(CC7CCC8(CC7)CCN(C(=O)c7ccc(Cl)c(N9CCC(=O)NC9=O)c7)CC8)CC6)CC5)nc4c3F)c12 [Example 57, 1-(5-(9-((4-((1-(((4-(3,8-diazabicyclo[3.2.1]octan-3-yl)-7-(8-ethynyl-3-hydroxynaphthalen-1-yl)-8-fluoropyrido[4,3-d]pyrimidin-2-yl)oxy)methyl)cyclopropyl)methyl)piperazin-1-yl)methyl)-3-azaspiro [5.5]undecane-3-carbonyl)-2-chlorophenyl)dihydropyrimidine-2,4(1H,3H)-dione]	≤ 50	–	≤ 50	–	–	≤ 50	≤ 50	–	–
C#Cc1c(F)ccc2cc(O)cc(-c3ncc4c(N5CC6CCC(C5)N6)nc(OCC(C)CN5CCN(CC6CCC7(CC6)CCN(C(=O)c6ccc(OC)c(N8CCC(=O)NC8=O)c6)CC7)CC5)nc4c3F)c12 (centres unmarked) [Example 84, 1-(5-(9-((4-(3-((4-(3,8-diazabicyclo[3.2.1]octan-3-yl)-7-(8-ethynyl-7-fluoro-3-hydroxynaphthalen-1-yl)-8-fluoropyrido[4,3-d]pyrimidin-2-yl)oxy)-2-methylpropyl)piperazin-1-yl)methyl)-3-azaspiro[5.5]undecane-3-carbonyl)-2-methoxyphenyl)dihydropyrimidine-2,4(1H,3H)-dione]	–	–	–	2.58	17	–	–	2.47	1.05
